Experimental data reported in US5220050A, “Peptide mimetic compounds useful as platelet aggregation inhibitors” (G. D. Searle & Co., priority 1991, dated 1993).
pIC50: −log10 of the molar value. Counter-ions that a name gives are not always drawn.

Tests used:
[1] = tested on: Platelet Aggregation in Dog PRP; assay: In-Vitro Platelet Aggregation in PRP (ADP induced); format: cell-based; conditions: for pIC50: Canis lupus familiaris, Platelet, in-vitro
Description: Healthy male or female dogs were fasted for 8 hours prior to drawing blood; then 30 ml whole blood was collected using a butterfly needle and 30 cc plastic syringe with 3 ml of 0.129 M buffered sodium citrate (3.8%). The syringe was rotated carefully as blood was drawn to mix the citrate. Platelet-rich plasma (PRP) was prepared by centrifugation at 975×g for 3.17 minutes at room temperature, allowing the centrifuge to coast to a stop without braking. The PRP was removed from the blood with a plastic pipette and placed in a plastic capped, 50 ml Corning conical sterile centrifuge tube which was held at room temperature. Platelet poor plasma (PPP) was prepared by centrifuging the remaining blood at 2000×g for 15 minutes at room temperature allowing the centrifuge to coast to a stop without braking. The PRP was adjusted with PPP to a count of 2-3×10^8 platelets per ml. 400 μl of the PRP preparation and 50 μl of the compound to be tested or saline were preincubated for 1 minute at 37° C. in a BioData aggregometer (BioData, Horsham, Pa.). 50 μl of adenosine 5'diphosphate (ADP) (50 μm final concentration) was added to the cuvettes and the aggregation was monitored for 1 minute. All compounds are tested in duplicate. Results are calculated as follows:
Percent of control=[(maximal OD minus initial OD of compound) divided by (maximal OD minus initial OD of control saline)]×100. The % inhibition=100-(percent of control).

[2] = tested on: collagen induced platelet aggregation; assay: Inhibition of ex vivo collagen induced aggregation after administration to dogs; format: in vivo, dogs (Beagles); conditions: dog, intragastric or intravenous; for inhibition in vivo at 10 mg/kg / inhibition in vivo at 30 mg/kg / inhibition in vivo at 20 mg/kg: Canis lupus familiaris, Platelet, read-out: Max % Inhibition
Description: The purpose of this assay is to determine the effects of antiplatelet compounds on ex vivo collagen induced platelet aggregation when administered either intravenously or orally to dogs.
Pretreatment (control) blood samples are drawn from either conscious or anesthetized dogs (Beagles) and centrifuged to prepare platelet rich plasma (PRP). Aggregatory response to collagen is measured in an aggregometer and used as Control.
In Table B the designation "NT" means "Not Tested". Also in Table B, two readings given in a single box indicate that two trials, rather than a single trial, were run for that particular compound in that particular assay.

CC(CC(=O)O)NC(=O)CCCCc1ccc(C(=N)N)cc1 (stereo not drawn) [3-[[5-[4-(Aminoiminomethyl)phenyl]-1-oxopentyl]amino]butanoic acid]
pIC50 [1]: 5.92
inhibition in vivo at 10 mg/kg ([2]; dose 10 mg/Kg): 80%
Duration ([2]; dose 10 mg/Kg): 5 h

CCOC(=O)CC(C)NC(=O)CCCCc1ccc(C(=N)N)cc1 (stereo not drawn) [Ethyl 3-[[5-[4-(aminoiminomethyl)phenyl]-1-oxopentyl]amino]butanoate]
pIC50 [1]: 5.30
inhibition in vivo at 10 mg/kg ([2]; dose 10 mg/Kg): 90%
inhibition in vivo at 30 mg/kg ([2]; dose 30 mg/Kg): 100%
Duration ([2]; dose 30 mg/Kg): > 24 h

CCOC(=O)CC(NC(=O)CCCCc1ccc(C(=N)N)cc1)c1ccccc1 (stereo not drawn) [Ethyl β-[[5-[4-(aminoiminomethyl)phenyl]-1-oxopentyl]amino]benzenepropanoate]
pIC50 [1]: 5.28
inhibition in vivo at 10 mg/kg ([2]; dose 10 mg/Kg): 83%
inhibition in vivo at 30 mg/kg ([2]; dose 30 mg/Kg): 100%
Duration ([2]; dose 30 mg/Kg): > 24 h

N=C(N)c1ccc(CCCCC(=O)NC(CC(=O)OC2CCCCC2)c2cccnc2)cc1 (stereo not drawn) [cyclohexyl β-[[5-[4-(aminoiminomethyl)phenyl]-1-oxopentyl]amino]-3-pyridinepropanoate]
pIC50 [1]: 5.64
inhibition in vivo at 10 mg/kg ([2]; dose 10 mg/Kg): 87%
Duration ([2]; dose 10 mg/Kg): 3 h

C=CC(CC(=O)OCC)NC(=O)CCCCc1ccc(C(=N)N)cc1 (stereo not drawn) [ethyl 3-[[5-[4-(aminoiminomethyl)phenyl]-1-oxopentyl]amino]-4-pentenoate]
inhibition in vivo at 30 mg/kg ([2]; dose 30 mg/Kg): 100%

CCOC(=O)CC(CC(C)C)NC(=O)CCCCc1ccc(C(=N)N)cc1 (stereo not drawn) [ethyl 3-[[5-[4-(aminoiminomethyl)phenyl]-1-oxopentyl]amino]-5-methylhexanoate]
inhibition in vivo at 30 mg/kg ([2]; dose 30 mg/Kg): 100%
Duration ([2]; dose 30 mg/Kg): > 6 h

CCOC(=O)CC(NC(=O)CCCCc1ccc(C(=N)N)cc1)c1ccc2c(c1)OCO2 (stereo not drawn) [ethyl β-[[5-[4-(aminoiminomethyl)phenyl]-1-oxopentyl]amino]-1,3-benzodioxole-5-propanoate]
inhibition in vivo at 10 mg/kg ([2]; dose 10 mg/Kg): 100%
Duration ([2]; dose 10 mg/Kg): 5 h

CCOC(=O)CC(NC(=O)CCCCc1ccc(C(=N)N)cc1)c1cc(OC)cc(OC)c1 (stereo not drawn) [ethyl β-[[5-[4-(aminoiminomethyl)phenyl]-1-oxopentyl]amino]-3,5-dimethoxybenzenepropanoate]
inhibition in vivo at 20 mg/kg ([2]; dose 20 mg/Kg): 70%
Duration ([2]; dose 20 mg/Kg): 4 h

CCOC(=O)CC(NC(=O)CCCCc1ccc(C(=N)N)cc1)c1cccnc1 (stereo not drawn) [ethyl β-[[5-[4-(aminoiminomethyl)phenyl]-1-oxopentyl]amino]-3-pyridinepropanoate]
inhibition in vivo at 10 mg/kg ([2]; dose 10 mg/Kg): 100%
inhibition in vivo at 20 mg/kg ([2]; dose 20 mg/Kg): 100%
Duration ([2]; dose 20 mg/Kg): > 24 h

CCOC(=O)CC(NC(=O)CCCCc1ccc(C(=N)N)cc1)c1ccc(OCC)cc1 (stereo not drawn) [ethyl β-[[5-[4-(aminoiminomethyl)phenyl]-1-oxopentyl]amino]-4-ethoxybenzenepropanoate]
inhibition in vivo at 20 mg/kg ([2]; dose 20 mg/Kg): 0%
Duration ([2]; dose 20 mg/Kg): 0 h

CCOC(=O)CC(NC(=O)CCCCc1ccc(C(=N)N)cc1)c1ccc(-c2ccccc2)cc1 (stereo not drawn) [ethyl β-[[5-[4-(aminoiminomethyl)phenyl]-1-oxopentyl]amino][1,1'-biphenyl]-4-propanoate]
inhibition in vivo at 30 mg/kg ([2]; dose 30 mg/Kg): 0%

CCOC(=O)CC(Cc1ccccc1)NC(=O)CCCCc1ccc(C(=N)N)cc1 (stereo not drawn) [ethyl β-[[5-[4-(aminoiminomethyl)phenyl]-1-oxopentyl]amino]benzenebutanoate]
inhibition in vivo at 20 mg/kg ([2]; dose 20 mg/Kg): 30%
Duration ([2]; dose 20 mg/Kg): 1.5 h

CCOC(=O)CC(CCc1ccccc1)NC(=O)CCCCc1ccc(C(=N)N)cc1 (stereo not drawn) [ethyl β-[[5-[4-(aminoiminomethyl)phenyl]-1-oxopentyl]amino]benzenepentanoate]
inhibition in vivo at 30 mg/kg ([2]; dose 30 mg/Kg): 0%

N=C(N)c1ccc(CCCCC(=O)NC(CC(=O)O)c2ccccc2)cc1 (stereo not drawn) [β-[[5-4-(aminoiminomethyl)phenyl]-1-oxopentyl]amino]benzenepropanoic acid, acetate salt]
pIC50 [1]: 5.28
inhibition in vivo at 30 mg/kg ([2]; dose 30 mg/Kg): 34%
Duration ([2]; dose 30 mg/Kg): < 2 h

N=C(N)c1ccc(CCCCC(=O)NC(CCCCc2ccccc2)CC(=O)O)cc1 (stereo not drawn) [β-[[5-[4-(aminoiminomethyl)phenyl]-1-oxopentyl]amino]benzeneheptanoic acid]
pIC50 [1]: 5.15

N=C(N)c1ccc(CCCCC(=O)NC(CCc2ccccc2)CC(=O)O)cc1 (stereo not drawn) [β-[[5-[4-(aminoiminomethyl)phenyl]-1-oxopentyl]amino]benzenepentanoic acid]
pIC50 [1]: 5.52

βR-[[5-[4-(aminoiminomethyl)phenyl]-1-oxopentyl]amino]-1-naphthalenebutanoic acid
% Inhibition ([1]; test concentration 1 × 10^-5): 5%
